Laboratory results published in patent US12281098B2, “Five-membered-fused six-membered compound, preparation method, pharmaceutical composition and use” (HANGZHOU POLYMED BIOPHARMACEUTICALS, INC., priority 2021, dated 2025).
pIC50: −log10 of the molar value. Like-named read-outs stand apart in the source and are kept apart here.

Assays:
IRAK4 kinase = target: T1, IRAK4 kinase (Homo sapiens, UniProt Q9NWZ3); assay: Compound inhibition of IRAK4 kinase activity (fluorescence microfluidic mobility shift assay); format: biochemical; details: 10 μM ATP, 6 nM IRAK4 kinase
T1 construct: purchased Carna 09-145
T1 sequence (Q9NWZ3 1-460): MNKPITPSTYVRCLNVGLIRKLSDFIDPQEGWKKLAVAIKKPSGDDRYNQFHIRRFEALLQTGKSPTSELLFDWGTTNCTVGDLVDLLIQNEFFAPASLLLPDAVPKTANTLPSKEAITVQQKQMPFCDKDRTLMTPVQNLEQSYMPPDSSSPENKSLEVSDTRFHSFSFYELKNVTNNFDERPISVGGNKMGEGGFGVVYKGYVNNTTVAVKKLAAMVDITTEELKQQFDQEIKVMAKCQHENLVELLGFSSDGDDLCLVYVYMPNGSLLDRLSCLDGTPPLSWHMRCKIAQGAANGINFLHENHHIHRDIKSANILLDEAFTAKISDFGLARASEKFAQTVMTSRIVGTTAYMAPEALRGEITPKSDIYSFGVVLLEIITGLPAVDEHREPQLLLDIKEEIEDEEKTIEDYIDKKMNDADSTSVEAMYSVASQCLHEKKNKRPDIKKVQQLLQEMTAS
Experimental: Based on the experimental method of fluorescence microfluidic mobility shift assay, the IC50 value of the compound for competitive binding of ATP to IRAK4 kinase was determined. The initial detection concentration of the compound was 10 μM, which was 4-fold serially diluted to 0.38 nM and assayed in duplicate. In this case, commercially available staurosporine was the standard control for the assay.
1) IRAK4 kinase was dissolved in kinase buffer (50 mM HEPES pH 7.5, 10 mM MgCl2, 2 mM DDT, and 0.01% Brij-35) at a final concentration of 6 nM.
2) The substrate peptide FAM-P8 and ATP were dissolved in the above kinase buffer, and the final concentrations of the substrate peptide FAM-P8 and ATP for IRAK4 were 3 μM and 10 μM, respectively.
3) Compound dilution: The compound was first diluted to 50 μM, and then 4-fold serially diluted with DMSO. In this case, the solution without compound and kinase served as the blank control, corresponding to the “minimum value” shown below; the solution without compound but containing kinase, adenosine 5′-triphosphate disodium salt hydrate, DMSO, and the buffer served as the positive control, corresponding to the “maximum value” shown below.
4) Kinase reaction and termination: 10 μL of the kinase buffer was added to a 384-well plate containing 5 μL of the compound to be tested, and the mixture was incubated at room temperature for 10 minutes; another 10 μL of buffer containing the substrate peptide and adenosine 5′-triphosphate disodium salt hydrate was added to the 384-well plate, and after incubation at 28° C. for 1 hour, 25 μL of termination solution (100 mM HEPES pH 7.5, 50 mM EDTA, 0.2% Coating Reagent #3, and 0.015% Brij-35) was added to each well to terminate the reaction.
5) Data reading: CaliperEZ Reader II instrument was used to read the conversion rate data. Setting conditions: downstream voltage as −500 V, upstream voltage as −2250 V, base pressure as −0.5 PSI, and screening pressure as −1.2 PSI.
6) Data calculation: the conversion rate data was copied from CaliperEZ Reader II, and the conversion rate was converted into inhibition rate data. The calculation formula is as follows: Inhibition percentage (%)=(maximum value−conversion rate)/(maximum value−minimum value)*100%
IC50 values were fitted with XLFit excel add-in version 5.4.0.8.

THP-1 cells = assay: LPS-stimulated cytokine (TNFα) release in THP-1; format: cell-based, Human; details: LPS 100 ng/mL, 5 hours, TNF-α ELISA, read-out: Inhibition IC50 (nM) of cytokines (TNFα) against LPS-stimulated inflammatory responses in THP-1 cells
Experimental: THP-1 cells were cultured in suspension in RPMI 1640 complete medium (containing 10% serum, 1% penicillin-streptomycin, and 55 μM β-mercaptoethanol). THP-1 cells were collected, centrifuged at 350×g at room temperature to discard the supernatant, and resuspended in RPMI 1640 complete medium to a concentration of 2×10^6 cells per mL. THP-1 cells were spread into a 96-well plate at a concentration of 2×10^5 cells per well, and different concentrations of the compound to be tested were added thereto. The plate was incubated in a 37° C. cell culture incubator with 5% CO2 for 60 minutes. 50 μL of LPS at a final concentration of 100 ng/mL was added to a 96-well plate, and incubated in a 37° C. cell culture incubator for 5 hours. The cell culture plate was then taken out from the incubator, and centrifuged at 350×g at low temperature for 5 minutes to collect 150 μL of the supernatant. Referring to the instructions in the Human TNF-α Duoset ELISA Kit, the level of TNF-α in the cell culture supernatant was detected.
Data on the inhibitory activity of cytokines (TNFα) against LPS-stimulated inflammatory responses in THP-1 cells are shown in Tables 3 and 4.

[1] = target: T2, IRAK4 protein in THP-1 cells (Homo sapiens, UniProt Q9NWZ3); assay: IRAK4 protein degradation in THP-1 induced by PROTAC (Western Blot); format: cell-based; details: GAPDH internal reference
T2 construct: endogenous in cells; host or cells: THP-1
T2 sequence (Q9NWZ3 1-460): T1 sequence (Q9NWZ3 1-460)
Experimental: 3.1. Based on the experimental method of immunoblot, i.e., Western Blot, THP-1 cell samples processed by gel electrophoresis were stained with specific antibodies, and the degradation activity of the compounds on the IRAK4 protein in THP-1 cells was determined by analyzing the position of the staining and the depth of the staining. The detection concentrations of the compounds were 0 μM, 0.3 μM, 1 μM, and 3 μM, and the compounds were used to treat the cells for 8 hours, 16 hours, 24 hours, and 48 hours. In this case, glyceraldehyde-3-phosphate dehydrogenase (GAPDH) was the internal reference protein for the assay.
THP-1 cells were spread into a 6-well plate at a density of 1.5×10^6 cells per mL, and incubated in a 37° C. cell culture incubator with 5% CO2 for 2 hours. The compound was diluted with DMSO to 0.6 mM, 0.2 mM, and 0.06 mM, respectively. 10 μL of compound solution was added to the corresponding wells, and the plate was incubated in the incubator for 16 hours, 24 hours, and 48 hours, respectively. The drug-treated THP-1 cells were collected from the wells, added with 120 μL of RIPA lysis buffer containing protease inhibitor, phosphatase inhibitor cocktail 2, and phosphatase inhibitor cocktail 3, and lysed on wet ice for 30 minutes. The cell lysate was then centrifuged at low temperature and high speed for 5 minutes, and the supernatant was collected. Referring to the instructions in the Pierce™ BCA Protein Assay Kit, the cell samples were tested for protein concentration.
The samples were adjusted to the same concentration using lysis buffer and NuPAGE® LDS sample buffer containing 1 M DTT. The samples were heated at 95° C. for 5 minutes and centrifuged at low temperature and high speed. 20 μL of prepared protein sample and 4 μL of PageRuler Prestained Protein Ladder were added to the gel wells. The mixture was electrophoresed at a voltage of 80 V for 0.5 hours, and then electrophoresed for another 1.5 hours after the voltage was adjusted to 120 V. The gel was removed and proteins in the gel were transferred to IBlot™ 2 Transfer Stack at a voltage of 20V. After successful membrane transfer, the bands were cut out at 65 kDa to 40 kDa and 40 kDa to 30 kDa, respectively. The membrane was blocked with 5% non-fat milk at room temperature for 1 hour. The membrane was washed three times with 1×TBST, and incubated with IRAK4 antibody working solution at 4° C. overnight. The IRAK4 antibody working solution was discarded, and the membrane was washed three times with 1×TBST. After the corresponding membrane was incubated with Goat Anti-Rabbit IgG H&L (HRP) working solution and Goat Anti-Mouse IgG H&L (HRP) working solution at room temperature for 1 hour, the antibody working solutions were discarded, and the membrane was washed three times with 1×TBST. Referring to the instructions in the SuperSignal™ West Femto Maximum Sensitivity Substrate Kit, the reagents in the kit were mixed in equal volume proportions to prepare a luminescent mixture, and the membrane was incubated for 1 minute and removed for exposure.
WB assay: The results 24 hours after administration at 1 μM were divided into estimated <25%, <50%, <75%, and <100%.

IC50 (THP-1 cells; Homo sapiens, THP-1, Table 4) [nM]	SMILES	pIC50 (IRAK4 kinase; Table 1)	pIC50 (IRAK4 kinase; Table 2)	Western Blot results 24 hours after administration at a drug concentration of 1 μM ([1]; Table 6, estimated bins) [%]	IC50 (THP-1 cells; Homo sapiens, THP-1, Table 3) [nM]	IC50 (THP-1 cells; Table 4) [nM]	Western Blot results 24 hours after administration at a drug concentration of 1 μM ([1]; Table 5, estimated bins) [%]
1000 to 10000	CC(C)(O)c1cc2nn(CCN3CCN(CC(=O)N4CCC5(CC4)CN(c4cccc6c4C(=O)N(C4CCC(=O)NC4=O)C6=O)C5)C3=O)cc2cc1NC(=O)c1cccc(C(F)(F)F)n1 (stereo not drawn) [III-5]	6.00 to 7.00	6.00 to 7.00	<25	–	–	–
–	Cc1ncsc1-c1ccc([C@H](C)NC(=O)[C@@H]2C[C@@H](O)CN2C(=O)[C@@H](NC(=O)C2CC3(CCN(C(=O)CN4CCN(CCn5cc6cc(NC(=O)c7cccc(C(F)(F)F)n7)c(C(C)(C)O)cc6n5)C4=O)CC3)C2)C(C)(C)C)cc1 [III-16]	6.00 to 7.00	6.00 to 7.00	–	1000 to 10000	1000 to 10000	<50
–	Cc1ncsc1-c1ccc([C@H](C)NC(=O)[C@@H]2C[C@@H](O)CN2C(=O)[C@@H](NC(=O)C2CCC3(CC2)CCN(C(=O)CN2CCN(CCn4cc5cc(NC(=O)c6cccc(C(F)(F)F)n6)c(C(C)(C)O)cc5n4)C2=O)CC3)C(C)(C)C)cc1 [III-17]	6.00 to 7.00	6.00 to 7.00	<25	1000 to 10000	1000 to 10000	<25
